Experimental data reported in paper PMC6915745, “TRIB3 supports breast cancer stemness by suppressing FOXO1 degradation and enhancing SOX2 transcription” (Nature Communications, 2019).
Each block holds one molecule with its values, some of them ahead of it.

What was measured:
[1] = system: TRIB3-silenced MCF7 cells; assay: Immunoblot of AKT1/FOXO1/SOX2, TRIB3-silenced MCF7 cells with AKT1 inhibitor MK2206; type: cell-based, human; details: TRIB3-silenced MCF7 cells, 24 h
Excerpt: Fig. 6 TRIB3 abrogates the AKT-FOXO1 interaction. a Supervised clustering of MCF7 cells transfected with CTRL-shRNA or TRIB3-shRNA using the log2-transformed values for genes in the FOXO1 upstream pathway, including AMPK, ERK, PI3K, p38, and JNK clustered genes expressed in all samples. Each column represents a separate case. Z-scores from IPA depicting the subnetwork gene expression differences between CTRL-shRNA and TRIB3-shRNA cases. The Z-score heat map depicts the five FOXO1 upstream subnetworks. Each row represents the data for the subnetwork indicated in the right margin. b, c TRIB3 inhibited the activity of AKT1 in BCCs. The indicated stable expression cell extracts were prepared and the levels of the indicated proteins were detected by immunoblotting. d, e The effects of the AKT1 agonist or antagonist for TRIB3-FOXO1-SOX2 axis in BCCs. The indicated cells were treated with the AKT1 agonist SC79 or the antagonist MK2206 for 24 h. […] HMLE cell extracts were IP with an anti-AKT1 Ab and blotted with an anti-TRIB3 or anti-FOXO1 Ab in the presence of the indicated concentration of the TRIB3-GST protein. Data are shown as the mean ± SEM; P > 0.05 was considered not significant (NS); *P < 0.05, **P < 0.01, and ***P < 0.001 compared with the vector or CTRL-shRNA group. Source data are provided as a Source Data file.
(§1) Cycloheximide (CHX; Sigma Aldrich, R750107) was used as a protein synthesis inhibitor to assess the stability of the existing proteins. To assess protein stability, cells were treated with 20 μM CHX and the proteasome inhibitor MG132 (Sigma Aldrich, R750107) at 10 μM or the autophagy inhibitor BAF (Sigma Aldrich, B1793) at 200 nM for the indicated times. Protein expression was assessed via immunoblot analysis with cell lysates (20–60 μg) prepared in RIPA lysis buffer containing protease inhibitors (Roche) using anti-SOX2 (3529), anti-NANOG (4903), anti-OCT4 (2750), anti-KLF4 (4038), anti-c-Myc (13987), anti-FOXO1 (2880), anti-p-FOXO1 (9461), anti-AKT (4685), anti-p-AKT (4060), anti-β-ACTIN (4970), anti-Ubiquitin (3936), or anti-LaminA/C (4777) antibodies from CST; anti-TRIB3 antibody (ab75846) from Abcam; and anti-Trib3 antibody (PA5-15480) from Thermo Fisher Scientific[59]. All antibodies were used at 1:1000 dilution, with the exception of anti-β-Actin antibodies, which were used at 1:2000 dilution. The protein concentrations were determined by BCA Protein Assay Kits (Pierce). Proteins were separated by SDS-polyacrylamide gel electrophoresis (PAGE) and transferred to polyvinylidene difluoride membrane.

[2] = system: TRIB3-silenced MDA-MB-231 cells; assay: Immunoblot of AKT1/FOXO1/SOX2, TRIB3-silenced MDA-MB-231 cells with AKT1 inhibitor MK2206; type: cell-based; details: 24 hr
Experimental: as §1, with “Proteins were separated by SDS-polyacrylamide gel electrophoresis (PAGE) and transferred to polyvinylidene difluoride membrane.” left out
indicated proteins were detected by immunoblotting. […]
MK2206 for 24 hr. Cell extracts were prepared and the levels of the indicated proteins were detected […]
levels of the indicated proteins were detected by immunoblotting. […]
glucose (HG) for 24 hr was detected by Western blotting. […]

[3] = target: T1, TRIB3-GST protein (Homo sapiens, UniProt Q96RU7); assay: SPR binding kinetics of peptides to TRIB3 (BIAcore T200); details: in words
T1 construct: purchased Sino, China
T1 sequence (Q96RU7 1-358): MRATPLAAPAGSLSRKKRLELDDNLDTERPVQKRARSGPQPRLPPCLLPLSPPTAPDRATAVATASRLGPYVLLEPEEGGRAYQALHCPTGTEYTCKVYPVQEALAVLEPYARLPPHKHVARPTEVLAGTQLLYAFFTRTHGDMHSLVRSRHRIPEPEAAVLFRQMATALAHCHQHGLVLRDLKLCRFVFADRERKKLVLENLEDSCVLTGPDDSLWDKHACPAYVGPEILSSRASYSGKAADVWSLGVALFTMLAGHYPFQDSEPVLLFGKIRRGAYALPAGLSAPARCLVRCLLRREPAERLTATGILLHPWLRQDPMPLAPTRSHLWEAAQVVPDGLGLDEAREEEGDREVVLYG
Experimental: Peptide Ae, alanine mutants of Ae (M1-M13), Pep2–con and Pep2–Ae were synthesized by Guoping Pharmaceutical, Co. (China). The Surface plasmon resonance binding kinetics between TRIB3 and the indicated peptides were analyzed by using a BIAcore T200 system (GE Healthcare)[14]. Briefly, TRIB3-GST protein (Sino, China) was immobilized onto four individual flow cells in a CM5 sensor chip (GE Healthcare) through a standard coupling protocol. To measure the binding kinetics, the indicated peptide (2.5~0.009 μM in 2-fold serial dilutions) and a buffer blank for baseline subtraction were sequentially injected, with a regeneration step (glycine, pH 2.5) inserted between each cycle. The equilibrium dissociation constant (KD) was calculated according to BIA-evaluation software.

[4] = system: FOXO1; details: HEPG2 cells, after insulin activation of PI3K-AKT; 12-hr under sera deprivation; ref Matsuzaki et al. (2003, PNAS); cited from earlier work
[5] = target: AKT1, endogenous in human cells (human (endogenous in HMLE, MCF7, …, UniProt P31749 1-480)); assay: cell-based or functional assay
[6] = system: AKT1-FOXO1 interaction; assay: Co-IP of AKT1-FOXO1 interaction in HMLE cell extracts with TRIB3-GST protein; type: binding, human; details: IP anti-AKT1
Excerpt: Fig. 6 TRIB3 abrogates the AKT-FOXO1 interaction. a Supervised clustering of MCF7 cells transfected with CTRL-shRNA or TRIB3-shRNA using the log2-transformed values for genes in the FOXO1 upstream pathway, including AMPK, ERK, PI3K, p38, and JNK clustered genes expressed in all samples. Each column represents a separate case. Z-scores from IPA depicting the subnetwork gene expression differences between CTRL-shRNA and TRIB3-shRNA cases. The Z-score heat map depicts the five FOXO1 upstream subnetworks. Each row represents the data for the subnetwork indicated in the right margin. b, c TRIB3 inhibited the activity of AKT1 in BCCs. The indicated stable expression cell extracts were prepared and the levels of the indicated proteins were detected by immunoblotting. d, e The effects of the AKT1 agonist or antagonist for TRIB3-FOXO1-SOX2 axis in BCCs. The indicated cells were treated with the AKT1 agonist SC79 or the antagonist MK2206 for 24 h. […]
Cell pellets were lysed with coimmunoprecipitation buffer (25 mM Tri-cl (pH 7.4), 150 mM NaCl, 0.5% NP-40, 2.5 mM MgCl, 0.5 mM EDTA, 5% Glycerol), incubated with IP antibodies overnight at 4 °C with shaking, and then incubated with Protein A/G Plus-Agarose (Santa Cruz Biotechnology) for 2 h at 4 °C[15]. Interaction complexes were separated from the beads by boiling for 10 min and then subjected to SDS-PAGE and detected with immunoblotting.

AKT1, endogenous in human cells (human, sequence (P31749 whole entry): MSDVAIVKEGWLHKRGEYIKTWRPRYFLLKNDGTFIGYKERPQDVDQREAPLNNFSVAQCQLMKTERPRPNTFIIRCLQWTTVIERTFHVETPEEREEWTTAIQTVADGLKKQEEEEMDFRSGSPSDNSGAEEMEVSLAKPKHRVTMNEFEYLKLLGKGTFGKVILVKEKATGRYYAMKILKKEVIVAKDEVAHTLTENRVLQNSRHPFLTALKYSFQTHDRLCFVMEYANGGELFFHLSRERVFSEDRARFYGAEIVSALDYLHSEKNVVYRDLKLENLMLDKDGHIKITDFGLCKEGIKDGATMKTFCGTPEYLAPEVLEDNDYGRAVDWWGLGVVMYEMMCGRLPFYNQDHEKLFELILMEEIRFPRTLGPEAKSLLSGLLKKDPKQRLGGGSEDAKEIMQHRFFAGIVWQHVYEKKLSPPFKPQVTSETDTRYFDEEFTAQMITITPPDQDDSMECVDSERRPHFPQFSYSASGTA

Molecule: NC1(c2ccc(-c3nc4ccn5c(=O)[nH]nc5c4cc3-c3ccccc3)cc2)CCC1 [MK2206, reference compound]
FOXO1 and SOX2 expression [1]: rescued FOXO1 and SOX2 expression
activity of AKT1 S473 and FOXO1 S256 [1]: suppressed the activity of AKT1^S473 and FOXO1^S256
FOXO1 and SOX2 expression [2]: rescued FOXO1 and SOX2 expression
activity of AKT1 S473 and FOXO1 S256 [2]: suppressed the activity of AKT1^S473 and FOXO1^S256

interaction with TRIB3 of control peptide ([3]; authors' reply to reviewers): no interaction with TRIB3
Molecule: AAHTAAENRV AAA [Pep2–con, reference compound]

Molecule: Ae: α-helical peptide which mimics the AKT1 191–204 α-helical region (EVAHTLTENRVLQN; UniProt P31749 191-204, looked up, fragment)
binding affinity with TRIB3, rank among α-helical peptides ([3]; SPR, series of α-helical peptides of AKT1 catalytic domain): displayed the best binding affinity with TRIB3 among all the α-helical peptides analyzed

Molecule: insulin: insulin activation of the PI3K-AKT signaling pathway
FOXO1 half-life [4]: approximately 6 hr

B1: Tribbles homolog 3 (TRIB3), endogenous in human breast cancer cells (natural protein, UniProt Q96RU7 1-358, looked up)
chain: MRATPLAAPAGSLSRKKRLELDDNLDTERPVQKRARSGPQPRLPPCLLPLSPPTAPDRATAVATASRLGPYVLLEPEEGGRAYQALHCPTGTEYTCKVYPVQEALAVLEPYARLPPHKHVARPTEVLAGTQLLYAFFTRTHGDMHSLVRSRHRIPEPEAAVLFRQMATALAHCHQHGLVLRDLKLCRFVFADRERKKLVLENLEDSCVLTGPDDSLWDKHACPAYVGPEILSSRASYSGKAADVWSLGVALFTMLAGHYPFQDSEPVLLFGKIRRGAYALPAGLSAPARCLVRCLLRREPAERLTATGILLHPWLRQDPMPLAPTRSHLWEAAQVVPDGLGLDEAREEEGDREVVLYG
half-life of FOXO1 degradation in MCF7 cells treated with Pep2–Ae (Supplementary Fig. 10d) [5]: 36 min

B2: TRIB3-GST protein: TRIB3-GST protein (Sino, China) (protein)
chain: MRATPLAAPAGSLSRKKRLELDDNLDTERPVQKRARSGPQPRLPPCLLPLSPPTAPDRATAVATASRLGPYVLLEPEEGGRAYQALHCPTGTEYTCKVYPVQEALAVLEPYARLPPHKHVARPTEVLAGTQLLYAFFTRTHGDMHSLVRSRHRIPEPEAAVLFRQMATALAHCHQHGLVLRDLKLCRFVFADRERKKLVLENLEDSCVLTGPDDSLWDKHACPAYVGPEILSSRASYSGKAADVWSLGVALFTMLAGHYPFQDSEPVLLFGKIRRGAYALPAGLSAPARCLVRCLLRREPAERLTATGILLHPWLRQDPMPLAPTRSHLWEAAQVVPDGLGLDEAREEEGDREVVLYG
modifications: left off: GST, end not stated, kept
AKT1-FOXO1 interaction [6]: inhibited the AKT1-FOXO1 interaction by binding to AKT1
